From ChEMBL document CHEMBL2046364, “Synthesis and evaluation of novel 3a,9a-dihydro-1-ethoxycarbonyl-1-cyclopenteno[5,4-b]benzopyran-4-ones as antifungal agents” (2012)
Values after ≈ are worked out from the molar mass of the structure shown.

What was measured:
Format in all cases: functional
Candida albicans = assay: Antifungal activity against Candida albicans MTCC 3018 by spectrophotometry based assay
Saccharomyces cerevisiae = assay: Antifungal activity against Saccharomyces cerevisiae MTCC 1344 by spectrophotometry based assay
[1] = Antifungal activity against Cryptococcus gastricus MTCC 1715 by spectrophotometry based assay; conditions: Goffeauzyma gastrica
[2] = Antifungal activity against Epidermophyton MTCC 613 by spectrophotometry based assay
Aspergillus niger = assay: Antifungal activity against Aspergillus niger MTCC 2642 by spectrophotometry based assay

SMILES	MIC (Candida albicans)	MIC (Saccharomyces cerevisiae)	MIC [1]	MIC [2]	MIC (Aspergillus niger)
CCOC(=O)C1=CC[C@H]2C(=O)c3ccc(F)cc3O[C@H]12	25 µg/mL (≈ 90.5 µM)	12.5 µg/mL (≈ 45.2 µM)	100 µg/mL (≈ 362 µM)	50 µg/mL (≈ 181 µM)	12.5 µg/mL (≈ 45.2 µM)
CCOC(=O)C1=CC[C@H]2C(=O)c3ccccc3O[C@H]12	25 µg/mL (≈ 96.8 µM)	50 µg/mL (≈ 194 µM)	–	> 100 µg/mL	25 µg/mL (≈ 96.8 µM)
CCOC(=O)C1=CC[C@H]2C(=O)c3ccc(Br)cc3O[C@H]12	–	100 µg/mL (≈ 297 µM)	–	–	100 µg/mL (≈ 297 µM)
OC(Cn1cncn1)(Cn1cncn1)c1ccc(F)cc1F [FLUCONAZOLE]	3.12 µg/mL (≈ 10.2 µM)	1.5 µg/mL (≈ 4.9 µM)	6.25 µg/mL (≈ 20.4 µM)	6.25 µg/mL (≈ 20.4 µM)	1.5 µg/mL (≈ 4.9 µM)
CCOC(=O)C1=CC[C@H]2C(=O)c3cc(Br)ccc3O[C@H]12	–	50 µg/mL (≈ 148 µM)	–	–	50 µg/mL (≈ 148 µM)
CCOC(=O)C1=CC[C@H]2C(=O)c3cccc(Cl)c3O[C@H]12	50 µg/mL (≈ 171 µM)	12.5 µg/mL (≈ 42.7 µM)	> 100 µg/mL	50 µg/mL (≈ 171 µM)	12.5 µg/mL (≈ 42.7 µM)
CCOC(=O)C1=CC[C@H]2C(=O)c3cc(F)ccc3O[C@H]12	–	25 µg/mL (≈ 90.5 µM)	–	> 100 µg/mL	> 100 µg/mL
CCOC(=O)C1=CC[C@H]2C(=O)c3ccc(Cl)cc3O[C@H]12	50 µg/mL (≈ 171 µM)	25 µg/mL (≈ 85.4 µM)	–	–	25 µg/mL (≈ 85.4 µM)
CCOC(=O)C1=CC[C@H]2C(=O)c3cc(C)ccc3O[C@H]12	–	> 100 µg/mL	–	> 100 µg/mL	> 100 µg/mL
CCOC(=O)C1=CC[C@H]2C(=O)c3cc(F)c(Cl)cc3O[C@H]12	> 100 µg/mL	25 µg/mL (≈ 80.5 µM)	–	–	100 µg/mL (≈ 322 µM)
CCOC(=O)C1=CC[C@H]2C(=O)c3cc(Cl)ccc3O[C@H]12	50 µg/mL (≈ 171 µM)	> 100 µg/mL	–	–	12.5 µg/mL (≈ 42.7 µM)
